In a melting point compilation (Tetko et al.; mined from patent text by program, amines drawn as free bases though some values may be those of a salt):

SMILES | melting point [°C]
Cc1ccc2nc(-c3cc(C(F)(F)F)nn3-c3ccc(S(C)(=O)=O)cc3)oc2c1 | 209 to 210
CN(C)C1(c2ccccc2)CCC(CNC(=O)CCCCCc2c[nH]c3ccc(F)cc23)CC1 (stereo not given) | 52 to 54
Cc1cccc(-c2nc3cccnn3c2-c2ccnc(NC(=O)N3CCc4ccccc4C3)c2)c1 | 122 to 124
Nc1cc(OCC2CCCCO2)c(C(=O)O)cc1Cl (stereo not given) | 146 to 148
CC1CCC2(OC1)OC1CC3C4CCC5CC(O[Si](C)(C)C)CCC5(C)C4CCC3(C)C1C2C (stereo not given) | 197 to 198
CC1(C)CCOC1(O)C(Cc1ccc(Cl)cc1)n1cncn1 (stereo not given) | 98
CC(C)(C)c1cc(CCc2ccccc2NC(=O)NC2CCN(Cc3ccccc3)CC2)cc(C(C)(C)C)c1O | 79 to 81
OCC(CO)C1c2ccccc2-c2ccccc21 | 101
CC1(C)CCC(C)(C)c2cc(-c3cc(-c4ccc(C(=O)O)cn4)ccc3-c3ccccc3)ccc21 | 105 to 107
CN=C(N)Nc1nc(CSCCNC2=NS(=O)N=C2N)cs1 (stereo not given) | 86 to 91
O=[N+]([O-])c1ccc(NCCO)nc1NCCO | 130 to 131
CC(Oc1ccc(Oc2cnc3cc(F)ccc3n2)cc1)C(=O)Nc1ccc(OC(F)(F)F)cc1 (stereo not given) | 140 to 142
CN1CCN(c2cccc3ccc(OS(=O)(=O)C(F)(F)F)cc23)CC1 | 70 to 71
O=C(O)c1ccccc1C(=O)Nc1ccc(C(=O)N2CCCC(O)c3cc(Cl)ccc32)cn1 (stereo not given) | 153 to 155
Cc1cc([N+](=O)[O-])c(Cl)nc1C | 72 to 76
COCCCN1CCC(CNC(=O)c2cc(Cl)c(N)nc2OC)CC1 | 103
Cn1cc(C(=O)NCc2ccc(Cl)cc2)c(=O)c2cc(C#CCO)sc21 | 206 to 208
CC1CCC(C(C)C)C(OC(=O)c2ccc(N)cc2O)C1 (stereo not given) | 187 to 189
O=C1C(O)OCN1c1ccc(Cl)c(Br)c1 (stereo not given) | 139 to 140
O=c1c(CCCCc2cccnc2)cc2cccnc2n1-c1cccc([N+](=O)[O-])c1 | 184 to 185
O=C(NCc1ccc2ccn(C3CCN(CCc4ccc(F)cc4)CC3)c2c1)C(F)F | 79 to 80
CCCN(CCC)C(=O)Cn1c(-c2ccc(F)cc2)nc2cccnc21 | 135 to 136
CN(C)c1ccc(/C=C/c2c(F)cc(F)cc2F)cc1 | 127 to 128
Nc1c(Cl)cc(Cl)n2nc(SCc3ccccc3)nc12 | 118 to 119
Cc1ccc2c(-n3ccnc3)c(F)ccc2n1 | 159 to 161

SMILES | melting point [°C]
CCOCC(=NNc1ccc(C(F)(F)F)cc1)C(=O)O | 96 to 99
O=Cc1cc(C(F)(F)F)ccc1Sc1ccccc1F | 130 to 132
CCOc1nc(NCc2ccc(C)o2)nc(Nc2ccc(O)cc2)n1 | 40 to 42
NC(=O)c1cn(-c2ccccn2)nc1-c1ccc([N+](=O)[O-])o1 | 250
COc1ccc(N(CCC(=O)O)C(=O)Cl)cc1 | 90
Nc1nc(N)c2ncn([C@H]3C=C[C@@H](O)C3)c2n1 (racemic) | 167 to 170
CC1=Nc2c3ccccc3nc(=O)n2C1C (stereo not given) | 234 to 237
COc1cc(OCCOc2ccc(C(=O)C(=O)O)cc2)cc(OC)c1OC | 118 to 119
O=Cc1ccc(-c2noc(-c3ccc(C(F)(F)F)cc3)n2)cc1 | 145 to 146
Cn1cc(-c2cc3cccnc3[nH]2)c2cc(C(=O)NC(CO)CO)ccc21 | 178 to 179
COCCc1nc2c(N)nc3c(c2n1CCOCCN(C)C(=O)Nc1ccccc1)CCCC3 | 168 to 170
CC/C(=C(\c1ccc(/C=C/C(=O)O)cc1)c1ccc(OC(=O)OC)cc1)c1ccccc1 | 140 to 142
CCOc1c(C#N)oc2c3ccccc3n(-c3ccccc3)c12 | 121 to 122
CCOC(=O)c1ccc(C(=O)CCc2ccc(S(C)(=O)=O)cc2)cc1 | 118 to 120
CCN(CC)Cc1ccnc(F)c1CNC(=O)c1cnc2cc(I)ccc2n1 | 147 to 149
COc1ccc(N2C(=O)c3cccc(OC)c3NC2c2ccc(OCCCl)cc2)cc1 (stereo not given) | 122 to 124
CC(=O)OC1OCC[C@@H]1NC(=O)[C@@H](NC(=O)OCc1ccccc1)C(C)C (stereo not given in full) | 173 to 174
COC(=O)C(=[N+]=[N-])c1ccc(S(C)(=O)=O)c(Cl)c1 | 103 to 106
CC(C)n1nc(-c2sc(NC(=O)OC(C)(C)C)nc2-c2ccccc2)ccc1=O | 198 to 199
CN1Cc2c(C(=O)NN)ncn2-c2cccc(Cl)c2C1=O | 287
COCCN(C)Cc1ccc(NC(=O)C2=Cc3cc(-c4ccc(C)cc4)ccc3OCC2)cc1 | 121 to 122
O=C1C2CCCC2=Nc2ccc(F)cc2N1Cc1ccccc1 (stereo not given) | 158 to 159
COc1cc(-c2cc(C3CCOC3)no2)cc2oc(=O)c(C)c(C)c12 (stereo not given) | 122
O=C(O)c1ccc(Oc2ccc(Oc3ccc(C(=O)O)c(C(=O)O)c3)c(P(=O)(c3ccccc3)c3ccccc3)c2)cc1C(=O)O | 212 to 218
N#Cc1ccc(CC23CCCN2C(=O)N(Cc2cc(Cl)cc(Cl)c2)C3=O)cc1 (stereo not given) | 124

SMILES | melting point [°C]
CN(Cc1ccc(NC(=O)C2=Cc3cc(-c4cccc(C(F)(F)F)c4)ccc3S(=O)(=O)CC2)cc1)C1CCOCC1 | 236 to 238
COc1cc(Nc2nccc(C(=O)c3ccccc3)n2)cc(OC)c1OC | 165
CCOC(=O)c1cn(CCc2ccccc2)c2occc2c1=O | 139 to 140
Nc1ccccc1C(=O)c1ccc(OCc2ccccc2)cc1 | 99 to 101
CS(=O)(=O)c1ccccc1-c1cc(F)cc(OCc2ccc3c(-c4ccoc4)cc(C#N)nc3c2)c1 | 186 to 187
CCOC(=O)CCCn1nc(-c2c(-c3ccccc3)nn3ccccc23)ccc1=O | 71 to 75
NC(=O)N(O)CCNC(=O)c1cccc(OCc2ccccc2)c1 | 183 to 185
FC(F)(F)c1ccc2nc(N3CCN(c4ncccc4C(F)(F)F)CC3)n(Cc3ccccc3)c2c1 | 154 to 157
O=C(c1ccccc1)C(O)CCl (stereo not given) | 42 to 45
CC(=O)OC1CSC(Oc2ccc(-c3ccc(CO)cc3)nc2)C(OC(C)=O)C1OC(C)=O (stereo not given) | 157
CN(Cc1ccc(NC(=O)C2=Cc3cc(-c4ccc(S(C)(=O)=O)cc4)ccc3OCC2)cc1)C1CCOCC1 | 233 to 235
CC(C)(C)c1ccc(C(=O)c2ccc3n2Cc2ccccc2N(C(=O)COc2ccc(Cl)cc2)C3)cc1 | 171
O=C1CCCc2[nH]c3ccc(F)cc3c21 | 255 to 260
Cc1cccc(C(=O)Nc2cccc(C(F)(F)F)c2)c1NCc1ccncc1 | 94 to 98
Cc1cc(Oc2ccc(F)cc2[N+](=O)[O-])n[nH]1 | 81 to 84
CSc1cnc(NC(=O)c2cccc(OC(C)=O)c2)s1 | 135 to 136
CC(=NC#N)N[C@@H]1c2cc(C#N)ccc2OC(C)(C)[C@H]1O (relative stereo) | 236 to 238
O=c1[nH]c(-c2ccccc2)c(-c2ccncc2)o1 | 300
CC1(C)C=Cc2c(ccc3c2C(=O)C(O)=CC3=O)O1 | 208
COC(=C(C)C#N)C(F)(F)F | 68 to 76.5
O=C(NC1CCCC1)c1ccc(-c2ccc3c(c2)CCN(CCN2CCCC2)C3=O)cc1 | 258 to 260
CCOc1cnccc1-c1nc2n(C3CCCC3)[nH]c(CC)c-2c(=O)n1 | 179 to 180
CCS(=O)(=O)N(C)C1c2cc(Cl)cc(Cl)c2OC(C)(C)C1OC(C)=O (stereo not given) | 136 to 137
COC(=O)c1coc2cc(O)ccc12 | 200 to 201
C#Cc1cccc(Oc2nc(Oc3cccc(C#C)c3)nc(-c3ccccc3)n2)c1 | 139 to 144

SMILES | melting point [°C]
N#Cc1ccc(-c2cn3c(C(F)(F)F)cccc3n2)cc1 | > 300
Cc1[nH]c2ccc(Br)cc2c1-c1ccncc1 | 248
COc1ccc(-c2sc3ncc(CO)c(O)c3c2C)cc1 | > 300
O=C(CSCCCCCCO)c1ccc2[nH]c(=O)[nH]c2c1 | 180 to 181
O=C(Cl)c1ccc(C#Cc2ccccc2C(=O)Cl)cc1 | 79 to 85
CCOC(=O)C(C)Oc1cc(-c2ccccc2)nc2ccccc12 (stereo not given) | 80
CCOC(=O)c1sccc1S(N)(=O)=O | 136
ON=C(Cc1ccccc1)c1ccccc1 | 94 to 96
NC(=O)c1ccc2c(c1)CCCN2CCN1CC=C(c2c[nH]c3cc(F)ccc23)CC1 | 130 to 133
C=CC(=O)[C@H](Cc1cc(F)cc(F)c1)NC(=O)OC(C)(C)C | 115
Cc1c(CC(=O)O)c2c(F)c(O)ccc2n1C(=O)c1ccc(Cl)cc1 | 187 to 189
COc1cc(C=O)cc(F)c1OC | 51 to 53
COC(=O)/C=C/c1ccc(OCc2nc(-c3ccccc3)oc2C)nc1 | 116 to 117
CCc1noc(-c2cn(-c3cccc(OC(C)C)c3)cn2)n1 | 107
COc1ccc2c(c1)CN(Nc1ccncc1)CC2 | 188 to 189
Cc1nnc(-c2ccnc3[nH]c(CCc4ccccc4)cc23)o1 | 210
CC(C)CC(=O)NC(=O)c1nnn(Cc2ccccc2)c1NC(=O)CC(C)C | 125 to 128
c1ccc(N2c3ccccc3Sc3ccccc32)nc1 | 107 to 109
COC(=O)Cn1c(=O)c(=O)[nH]c2ccccc21 | 269
CCc1cccc2c(-c3nc(OC)cc(OC)n3)c(C)[nH]c12 | 90.3 to 94.8
CCCCCCCCCCCCc1ccc(S(=O)(=O)Nc2nnc(CCCCCN(C)c3ccc([N+](=O)[O-])c4nonc34)s2)cc1 | 102 to 104
CC(C)c1cccc(C(C)C)c1NC(=O)C(Cc1ccccc1)NCc1ccccc1 (stereo not given) | 120 to 124
CC(=O)c1c(-c2ccncc2)[nH]c(-c2ccccc2)c1C | 208 to 209
CC(C)(C)OC(=O)N1CCc2cccc([N+](=O)[O-])c2CC1 | 85 to 88
CCCCc1nc(Cl)c(CO)n1Cc1ccc2oc(-c3ccccc3-c3nnn[nH]3)c(Br)c2c1 | 193 to 197
